In PMC5786021, “A dynamic allosteric pathway underlies Rad50 ABC ATPase function in DNA repair” (Scientific Reports, 2018):
Read-outs that look alike come from different tables or passages of the source.

Columns and labels:
[1] = biological target: T1, Mre11^HLH-Rad50^NBD (Pyrococcus furiosus, UniProt P58301, DEL196-708); assay: fluorescence polarization competition with BODIPY FL ATP; assay type: binding
T1 construct: Mre11 helix-loop-helix aa344-426; His and NusA-His tags removed with TEV; E. coli; monomeric without nucleotide; with DNA double-strand break repair protein Mre11

[2] = biological target: T2, Mre11_2-Rad50^NBD2 (Pyrococcus furiosus, UniProt P58301, DEL196-708); assay: 2-aminopurine DNA exonuclease fluorescence; assay type: biochemical; conditions: 1 mM AMP-PNP, 1 mM MnCl2, 5 mM MgCl2, 50 mM Tris pH 7.5, 60 °C; allosteric via Rad50
T2 construct: about 160 kDa; E. coli; with DNA double-strand break repair protein Mre11

[3] = biological target: T3, Mre11^HLH-Rad50^NBD (Pyrococcus furiosus, UniProt P58301, DEL196-708/R805E); assay: fluorescence polarization competition with BODIPY FL ATP; assay type: binding
T3 construct: Mre11 helix-loop-helix aa344-426; His and NusA-His tags removed with TEV; E. coli; monomeric without nucleotide; with DNA double-strand break repair protein Mre11
T3 sequence (P58301 709-882 R805E, other chains not shown): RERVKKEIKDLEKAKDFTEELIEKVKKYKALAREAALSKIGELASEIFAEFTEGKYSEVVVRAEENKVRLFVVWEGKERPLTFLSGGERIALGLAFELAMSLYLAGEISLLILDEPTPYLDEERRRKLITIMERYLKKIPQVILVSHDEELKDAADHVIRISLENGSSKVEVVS
T3 sequence (P58301 1-195, stated change not applied, other chains not shown): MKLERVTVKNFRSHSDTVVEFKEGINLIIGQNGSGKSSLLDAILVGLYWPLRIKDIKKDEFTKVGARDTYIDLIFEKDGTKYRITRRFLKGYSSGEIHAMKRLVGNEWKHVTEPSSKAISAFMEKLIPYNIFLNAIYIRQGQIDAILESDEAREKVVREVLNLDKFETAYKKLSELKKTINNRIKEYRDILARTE

T1 sequence (P58301 709-882, stated change not applied, other chains not shown): as the sequence (P58301 709-882 R805E, other chains not shown) above, with E97R counted along it
T1 sequence (P58301 1-195, stated change not applied, other chains not shown): as the sequence (P58301 1-195, stated change not applied, other chains not shown) above
T2 sequence (P58301 709-882, stated change not applied): as the sequence (P58301 709-882 R805E, other chains not shown) above, with E97R counted along it
T2 sequence (P58301 1-195, stated change not applied): as the sequence (P58301 1-195, stated change not applied, other chains not shown) above

Nc1ncnc2c1ncn2[C@@H]1O[C@H](COP(=O)(O)OP(=O)(O)O)[C@@H](O)[C@H]1O [ADP]
Ki ([1]; read-out: KI,ADP): 6.5 µM

Nc1ncnc2c1ncn2[C@@H]1O[C@H](COP(=O)(O)OP(=O)(O)NP(=O)(O)O)[C@@H](O)[C@H]1O [AMP-PNP]
reduction in Mre11 exonuclease activity [2]: non-hydrolyzable ATP analog AMP-PNP resulted in a dramatic reduction in exonuclease activity

Nc1ncnc2c1ncn2[C@@H]1O[C@H](COP(=O)(O)OP(=O)(O)OP(=O)(O)O)[C@@H](O)[C@H]1O [ATP]
Ki [3]: 3 µM
Ki [1]: 9.8 µM
